Test results taken from ChEMBL document CHEMBL3751828, “Discovery of imidazo[1,2-a]-pyridine inhibitors of pan-PI3 kinases that are efficacious in a mouse xenograft model” (Bioorg Med Chem Lett, 2016).

How the values were obtained:
[1] = Cmax in CD rat at […], po by LC-MS analysis; format: ADME, organism-based; parameters: dose 2.5 mg/kg, route oral; conditions: in vivo
[2] = AUC (0 to last) in CD rat at […], po by LC-MS analysis; format: ADME, organism-based; parameters: dose 2.5 mg/kg, route oral, time 0 - last; conditions: in vivo
[3] = Apparent permeability of the compound from apical to basolateral side in human Caco2 cells; format: ADME, cell-based; conditions: Caco-2

Row | SMILES | Cmax [1] [µM] | AUC(0-t) [2] [µM·h] | Papp A→B [3] [×10⁻⁶ cm/s]
1 | CC(=O)Nc1cn2cc(-c3cnc(N)c(OCC(F)(F)F)n3)ccc2n1 | 1.5 | 4 | –
2 | COCCOc1nc(-c2ccc3nc(NC(C)=O)cn3c2)cnc1N | 4 | 14 | –
3 | CCOc1nc(-c2ccc3nc(NC(C)=O)cn3c2)cnc1N | 3.6 | 7 | –

Other lines, results leading:

Row | Cmax [1] [µM] | AUC(0-t) [2] [µM·h] | Papp A→B [3] [×10⁻⁶ cm/s] | SMILES
4 | 1.3 | 13 | – | CC(=O)Nc1cn2cc(-c3cnc(N)c(OC(C)C)n3)ccc2n1
5 | 3 | 49 | 41 | CC(=O)Nc1cn2cc(-c3cnc(N)c(OC(C)C(F)(F)F)n3)ccc2n1 (racemic)
6 | 8.9 | 15 | – | COc1nc(-c2ccc3nc(NC(C)=O)cn3c2)cnc1N
